This experiment deals with human ABCA1 promoter. Description: ABCA1 promoter test (luciferase reporter in stably transfected THP1 cell line). It counts as cell-based. The note with it: ABCA1 reporter cell line (THP1, PMA-differentiated), 24 h incubation, luciferase chemiluminescence, read-out: E50 ABCA1. The method in brief: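 PMA-differentiated THP1 macrophages stably carrying a 3.2 kb human ABCA1 promoter-luciferase construct, treated 24 h at 37° C with 11 concentrations ([…] to 330 pM, DMSO <0.1%). Luciferase read by luminescence after lysis; EC50 from dose-response plots.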

Structures can show the parent of a compound that is named as a salt. Where two headings read alike, the source gives them in different places.

`Cc1cccc([C@@H]2CN(S(=O)(=O)c3c(C)noc3C)C[C@H]2C(=O)N2CCN(c3cc(C)ccc3C)CC2)c1` [Example 101, [1-(3,5-Dimethylisoxazole-4-sulfonyl)-3,4-trans-4-m-tolylpyrrolidin-3-yl]-[4-(2,5-dimethylphenyl)piperazin-1-yl]methanone trifluoroacetate]: for the setting “Homo sapiens, THP-1”, the EC50 worked out at 1850 nM.

`COc1cccc(S(=O)(=O)N2C[C@@H](C(=O)N3CCN(c4cc(C)ccc4C)CC3)[C@H](c3cccc(C)c3)C2)c1` [Example 102, [4-(2,5-Dimethylphenyl)piperazin-1-yl]-[1-(3-methoxybenzenesulfonyl)-3,4-trans-4-m-tolylpyrrolidin-3-yl]methanone trifluoroacetate]: under “Homo sapiens, THP-1”, the EC50 was found to be 1050 nM. `COc1cccc(S(=O)(=O)N2C[C@@H](C(=O)N3CCN(c4cc(C)ccc4C)CC3)[C@H](c3c(C)noc3C)C2)c1` [Example 104, [3,4-trans-4-(3,5-Dimethylisoxazol-4-yl)-1-(3-methoxybenzenesulfonyl)-pyrrolidin-3-yl]-[4-(2,5-dimethylphenyl)piperazin-1-yl]methanone trifluoroacetate]: the EC50 (Homo sapiens, THP-1) came out at 6270 nM. Still for that read-out and setting: then `Cc1ccc(C)c(N2CCN(C(=O)[C@@H]3CN(S(=O)(=O)c4c(C)noc4C)C[C@H]3c3c(C)cccc3C)CC2)c1` [Example 106, [1-(3,5-Dimethylisoxazole-4-sulfonyl)-3,4-trans-4-(2,6-dimethylphenyl)pyrrolidin-3-yl]-[4-(2,5-dimethylphenyl)piperazin-1-yl]methanone trifluoroacetate], with 372 nM; and `Cc1ccc(C)c(N2CCN(C(=O)[C@@H]3CN(S(=O)(=O)c4c(C)noc4C)C[C@H]3c3cccc4c3OCO4)CC2)c1` [Example 108, [3,4-trans-4-Benzo[1,3]dioxol-4-yl-1-(3,5-dimethylisoxazole-4-sulfonyl)-pyrrolidin-3-yl]-[4-(2,5-dimethylphenyl)piperazin-1-yl]methanone trifluoroacetate], with 585 nM. Consider `COc1cccc(S(=O)(=O)N2CC(C(=O)N3CCN(c4cc(C)ccc4C)CC3)C(c3ccsc3)C2)c1` (stereo not drawn) [Example 110, [4-(2,5-Dimethylphenyl)piperazin-1-yl]-[1-(3-methoxybenzenesulfonyl)-3,4-trans-4-thiophen-3-ylpyrrolidin-3-yl]methanone trifluoroacetate], for which the EC50 is 914 nM. In the case of `Cc1ccc(C)c(N2CCN(C(=O)[C@@H]3CN(S(=O)(=O)c4c(C)noc4C)C[C@H]3c3ccsc3)CC2)c1` [Example 111, [1-(3,5-Dimethylisoxazole-4-sulfonyl)-3,4-trans-4-thiophen-3-ylpyrrolidin-3-yl]-[4-(2,5-dimethylphenyl)piperazin-1-yl]methanone trifluoroacetate], the EC50 (Homo sapiens, THP-1) came to 867 nM. On the same count and under the same terms, then `Cc1ccc(C)c(N2CCN(C(=O)[C@@H]3CN(S(=O)(=O)c4c(C)noc4C)C[C@H]3c3cccnc3)CC2)c1` [Example 112, [1-(3,5-Dimethylisoxazole-4-sulfonyl)-3,4-trans-4-pyridin-3-ylpyrrolidin-3-yl]-[4-(2,5-dimethylphenyl)piperazin-1-yl]methanone trifluoroacetate], with 14300 nM. Regarding `COc1cccc(S(=O)(=O)N2C[C@@H](C(=O)N3CCN(c4cc(C)ccc4C)CC3)[C@H](c3ccoc3)C2)c1` [Example 114, [4-(2,5-Dimethylphenyl)piperazin-1-yl]-[3,4-trans-4-furan-3-yl-1-(3-methoxybenzenesulfonyl)pyrrolidin-3-yl]methanone trifluoroacetate], under “Homo sapiens, THP-1”, the EC50 was 2140 nM. On to `Cc1ccc(C)c(N2CCN(C(=O)[C@@H]3CN(S(=O)(=O)c4c(C)noc4C)C[C@H]3c3ccoc3)CC2)c1` [Example 115, [1-(3,5-Dimethylisoxazole-4-sulfonyl)-3,4-trans-4-furan-3-ylpyrrolidin-3-yl]-[4-(2,5-dimethylphenyl)piperazin-1-yl]methanone trifluoroacetate], for which the EC50 (Homo sapiens, THP-1) amounted to 2640 nM. With `Cc1ccc(C)c(N2CCN(C(=O)[C@@H]3CN(S(=O)(=O)c4cccnc4)C[C@H]3c3ccoc3)CC2)c1` [Example 116, [4-(2,5-Dimethylphenyl)piperazin-1-yl]-[3,4-trans-4-furan-3-yl-1-(pyridine-3-sulfonyl)pyrrolidin-3-yl]methanone trifluoroacetate], the EC50 (Homo sapiens, THP-1) came out at 10800 nM. As for `Cc1ccc(C)c(N2CCN(C(=O)[C@H]3CN(S(=O)(=O)c4c(C)noc4C)C[C@H]3c3ccccc3)CC2)c1` [Example 118, [1-(3,5-Dimethylisoxazole-4-sulfonyl)-3,4-cis-4-phenylpyrrolidin-3-yl]-[4-(2,5-dimethylphenyl)piperazin-1-yl]methanone trifluoroacetate], the EC50 (Homo sapiens, THP-1) turned out to be 346 nM. For the compound `COc1cccc(S(=O)(=O)N2C[C@H](C(=O)N3CCN(c4cc(C)ccc4C)CC3)[C@H](c3ccccc3)C2)c1` [Example 119, [4-(2,5-Dimethylphenyl)piperazin-1-yl]-[1-(3-methoxybenzenesulfonyl)-3,4-cis-4-phenylpyrrolidin-3-yl]methanone trifluoroacetate], the EC50 (Homo sapiens, THP-1) is 177 nM.

Turning to `Cc1ccc(C)c(N2CCN(C(=O)[C@H]3CN(S(=O)(=O)c4cccnc4)C[C@H]3c3ccccc3)CC2)c1` [Example 120, [4-(2,5-Dimethylphenyl)piperazin-1-yl]-[3,4-cis-4-phenyl-1-(pyridine-3-sulfonyl)pyrrolidin-3-yl]methanone trifluoroacetate], the EC50 (Homo sapiens, THP-1) was found to be 395 nM.

For the origin of these results see patent US7468369B2, “Sulfonyl pyrrolidines, method for producing the same and their use as drugs” (Sanofi-Aventis, priority 2005, dated 2008).
